Experimental findings from patent US7247734B2 (Vernalis (Cambridge) Limited, priority 2001, dated 2007) are described below.

SMILES strings stand for the structures.

The test system of assay [1] is HSP70 and client protein (CDK4) expression in HT29 cells. The assay is described as follows: Western blotting of HSP70 and CDK4 in HT29 cells. In kind it is cell-based, human. Conditions: 24 hours, various concentrations. Here is the method:
(§1) The cellular effects of HSP90 inhibitors can be measured using a number of molecular markers. As already mentioned, HSP90 inhibition leads to the depletion of several important cellular signalling proteins. […] Depletion is normally observed by 6 h, with maximum depletion occurring at 24 h. As well as RAF-1, depletion of several other HSP90 client proteins can be measured by immunoblotting e.g., CDK4, ERBB2. However, it is important to note that some of these proteins are cell line specific e.g., ERBB2 is expressed mainly in breast, thyroid, kidney and some ovarian tumour cell lines. Another very important marker of HSP90 inhibition is heat shock protein 70 (HSP70). A HSF-1 (heatshock factor 1) dependent increase in HSP70 levels has been reported by us and other groups (see, e.g., Whitesell et al., 1994; Clarke et al., 2000) and this effect can serve as a positive indicator of HSP90 inhibitor action. The immunoblotting method described is based on standard techniques but is described in detail for ease of reference.
Prepare as required and store at −20° C. • (4) Bicinchoninic acid (BCA) protein assay reagents (PerBio Science UK, Ltd., Chester, UK). • (5) Casein blocking buffer (0.5% casein, 0.02% thimerosal, in PBS). Store at 4° C. for up to 2 weeks. • (6) Wash buffer (phosphate buffered saline, PBS) containing 0.05% Tween 20). • (7) Tris-glycine gradient polyacrylamide precast gels (4–20%) (1 mm thick) (Novex, InVitrogen, Groningen, NL). • (8) Nitro-cellulose membrane (0.2 μm pore size) (InVitrogen, Groningen, NL). • (9) Ponceau Red stain (2% w/v in 30% TCA/30% […], Sigma Aldrich Ltd., Pool, UK). • (10) Enhanced chemiluminescence (SuperSignal) reagents (PerBio Science UK, Ltd., Chester, UK). • (11) Photographic film (Hyperfilm ECL, Amersham Pharmacia Biotech, Little Chalfont, Bucks, UK). Method
The following protocol was used: • (1) Lyse cells (approx 4×10^6) in 100 μl lysis buffer for 30 minutes on ice. When adding the lysis buffer, shear cells by pipetting up and down using a Gilson P200 pipette. • (2) Spin lysates for 10 min at 13,000 rpm at 4° C., retrieve supernatant and store at −70° C. • (3) Determine protein concentration using BCA protein assay reagents. • (4) Load samples of cell lysates (50 μg protein/lane) onto gel and separate proteins by SDS-polyacrylamide gel electrophoresis (SDS-PAGE) using a 4–20% Tris-glycine gel. • (5) Transfer proteins to nitrocellulose membrane using optimum conditions for the equipment available. For example, 150 mA for 2 h using the Mighty Small transfer system (Hoeffer TE22 Mini Tank Transphor Unit, Amersham Pharmacia Biotech, Little Chalfont, Bucks, UK). […]
(§2) Comments • (1) The protein bands are normally evaluated visually. […]

Assay [2] concerns HT29 human colon tumour cells. Put plainly: 96 h growth inhibition assay (SRB), HT29. In kind it is cell-based. Conditions: HT29, 96 h. How it is done: (§3) The growth inhibition assay employed was based on that described previously (Kelland et al., 1993). HCT116 and HT29 human colon tumour cells (American Tissue Culture Collection) were seeded into 96-well tissue culture plates (approximately 1600–2000 cells per well) and allowed to attach for 36 hours. Eight wells were treated with a single concentration from a range of compound concentrations and incubated for 96 hours. Cells were fixed using ice cold 10% trichloroacetic acid (TCA). Plates were then washed five times with water, air dried, and stained with 0.4% sulphorhodamine B (SRB) in 1% acetic acid for 10 minutes. The SRB stain was solubilised in 10 mM Tris-HCl and the absorbance measured at 540 nm using a Titertek Multiscan MCC/340 MKII plate reader (Flow Laboratories, IEC, Basingstoke, N.H.). The absorbance values correspond to total protein content and are used as a measure of cell growth.

Assay [3] relates to HSP70 and RAF-1 expression in A2780 human ovarian cancer cells. The assay is described as follows: Western blotting of HSP70 and RAF-1 in A2780 cells. Conditions: 60 nM (5×IC50), various times. It counts as cell-based. Here is the method: as §1
Prepare as required and store at −20° C. • (4) Bicinchoninic acid (BCA) protein assay reagents (PerBio Science UK, Ltd., Chester, UK). • (5) Casein blocking buffer (0.5% casein, 0.02% thimerosal, in PBS). […]
as §2
Background: A western blot detects proteins with antibodies after separation by electrophoresis.

Assay [4] deals with HCT116 human colon tumour cells. The assay is described as follows: 96 h growth inhibition assay (SRB), HCT116. In kind it is cell-based. Conditions: HCT116, 96 h. How it is done:
as §3

In another assay the test system is HCT116 cells. Put plainly: Cellular protein by BCA assay after compound exposure (ELISA plates). Conditions: HCT116, 1 μM compound. It counts as cell-based, human. How it is done:
Incubate at 37° for 30 min. • (6) Wash plates twice in PBS using an automated washer (Wellwash 5000 ten plate stacker-washer or Wellwash Ascent single plate washer, Thermo Labsystems, Basingstoke, UK). • (7) Block the plates by addition of blocking solution (100 μl) and incubate for 30 min. • (8) Add 100 μl primary antibody diluted to 0.95 μg/ml in PBS to each well and incubate plate for 1.5 h. Wash plates once with DELFIA® wash solution. • (9) Add 100 μl Europium labelled anti-mouse IgG diluted in DELFIA® assay buffer to 75 ng/ml and incubate for 1 hour. Wash plates once with DELFIA® wash solution as before. • (10) Add 100 μl DELFIA® enhancement solution to each well. • (11) Measure the fluorescence (615 nm) in Victor 2 1420 multilabel counter (Perkin Elmer Life Sciences, Milton Keynes, UK) using time-resolved measurement mode. • (12) Wash plates once with PBS and measure protein concentration by the addition of 200 μl BCA reagent to each well, shake for 1–2 min and incubate for 30 mins at 37° C. Read absorption at 570 nm. • (13) Express ELISA results by normalising to protein in the well (Eu counts (cpm) divided by OD@ 570 nm). Compare the effect of HSP90 inhibitors on HSP70 expression with DMSO treated controls. Comments • (1) Cells plated into 96 well plates are incubated in a plastic box to reduce evaporation from the outside wells. In addition, ELISA incubation steps are carried out in a 37° C. laboratory incubator and in a moist environment e.g., plastic box lined with damp tissue paper. • (2) All additions to the microtitre plate can be achieved using a multichannel pipette or for larger numbers of plates an automated dispenser such as a Multidrop (Thermo Labsytems, Basingstoke, UK). • (3) For convenience, if the effects of compounds are being studied at several time points the ELISA can be carried out in batches, plates being stored (in a container) at 4° C. following the fixation step. In this case the plates are washed only once following fixation and again immediately before the first ELISA step (step 6 above). In addition all the plates can be stored for subsequent protein estimation. • (4) Reproducibility of both the measured Europium counts and the protein measurements was between 10–15% (CV). • (5) DELFIA® reagents (see, e.g., Hemmila and Webb, 1997) have been routinely used in cell-based ELISAs. This endpoint provides high sensitivity and the time-resolved measurements reduce interference from non-specific fluorescence. However, it is also possible to use a horse radish peroxidase second antibody conjugate and either a calorimetric (e.g., tetramethylbenzidine) or chemiluminescent reagent (e.g., ECL reagent (Amersham Pharmacia Biotech, Little Chalfont, Bucks, UK) for endpoint measurement. • (6) It is recommended that a blank consisting of second-antibody only (i.e., no first antibody) together with an appropriate first antibody control (e.g., isotype matched IgG) are included in assays during the process of optimising reagent concentrations. Growth Inhibition Assay
The effect of various compounds of the present invention on the expression of the molecular marker HSP70 was determined using the cell-based ELISA and a specific monoclonal antibody to HSP70 in HCT116 cells, as described above. Cellular protein following compound exposure was determined using BCA assay as described in the method.

Another assay deals with HSP70 in HCT116 cells. Put plainly: Cell-based ELISA for HSP70 expression. The arrangement: species or system human. Conditions: HCT116, 1 μM compound. The source says:
Cell-based ELISA methods (see, e.g., Stockwell et al., 1999; Versteeg et al., 2000) offer several advantages for evaluating the pharmacodynamic effects of novel mechanism-based inhibitors and may be the method of choice for comparing inhibitors that are identified during the iterative process of lead identification and optimisation. The technique can be used to rapidly rank the effectiveness of compounds as well as to investigate the molecular mechanisms of their action. The increased sample throughput possible with ELISA means that compounds can be simultaneously studied in multiple replicates at different doses and exposure times. […] The assays are carried out directly on cells grown and treated in microtitre plates, thereby removing the necessity for preparing cell lysates. ELISA techniques can in theory be applied to any cellular protein or post-translational modification for which an antibody is available and results are at least semi-quantitative.
Chemicals are of the highest purity commercially available. • (1) Human colon tumour cell lines (e.g., HCT116 and HT29 from American Tissue Culture Collection, ATCC) grown in Dulbecco's modified Eagle's medium (DMEM) (CSSD, Institute of Cancer Research, London, UK) supplemented with […] glucose, 10% foetal bovine serum (FBS), 200 mM L-glutamine, and 5 ml non-essential amino acids in a humidified atmosphere of 5% CO2 at 37° C. • (2) 96 well Falcon clear microtitre tissue culture plates (BD Labware, Hospital Management and Supplies, Ltd., Northampton, UK). • (3) DMSO diluted in dH2O (8%). • (4) HSP90 inhibitors at required concentration dissolved in DMSO. • (5) Fixing solution (0.25% glutaraldehyde, 3% paraformaldehyde and 0.25% Triton-X 100) (all from Sigma Aldrich Ltd, Poole, UK). • (6) Blocking solution (5% dried milk (Marvel) in PBS) prepared daily. • (7) Anti HSP70 monoclonal antibody (SPA 810, Bioquote, York, UK). • (8) DELFIA® wash buffer, enhancement solution, assay buffer and Europium labelled anti-mouse IgG (1244–1330) (PerkinElmer Life Sciences, Milton Keynes, UK). • (9) BCA protein assay reagents (Perbio Science UK Ltd., Chester, UK). Method
Incubate at 37° for 30 min. • (6) Wash plates twice in PBS using an automated washer (Wellwash 5000 ten plate stacker-washer or Wellwash Ascent single plate washer, Thermo Labsystems, Basingstoke, UK). • (7) Block the plates by addition of blocking solution (100 μl) and incubate for 30 min. • (8) Add 100 μl primary antibody diluted to 0.95 μg/ml in PBS to each well and incubate plate for 1.5 h. Wash plates once with DELFIA® wash solution. • (9) Add 100 μl Europium labelled anti-mouse IgG diluted in DELFIA® assay buffer to 75 ng/ml and incubate for 1 hour. Wash plates once with DELFIA® wash solution as before. • (10) Add 100 μl DELFIA® enhancement solution to each well. • (11) Measure the fluorescence (615 nm) in Victor 2 1420 multilabel counter (Perkin Elmer Life Sciences, Milton Keynes, UK) using time-resolved measurement mode. • (12) Wash plates once with PBS and measure protein concentration by the addition of 200 μl BCA reagent to each well, shake for 1–2 min and incubate for 30 mins at 37° C. Read absorption at 570 nm. • (13) Express ELISA results by normalising to protein in the well (Eu counts (cpm) divided by OD@ 570 nm). Compare the effect of HSP90 inhibitors on HSP70 expression with DMSO treated controls. Comments • (1) Cells plated into 96 well plates are incubated in a plastic box to reduce evaporation from the outside wells. […]

Take `C=CCNC1=C2C[C@@H](C)C[C@H](OC)[C@H](O)[C@@H](C)/C=C(\C)[C@H](OC(N)=O)[C@@H](OC)/C=C\C=C(/C)C(=O)NC(=CC1=O)C2=O` [Example 17AAG, 17-allylamino-17-demethoxygeldanamycin, reference compound]: in assay [1], the “CDK4 client protein expression (immunoblot)” value is “depleted” and the “HSP70 expression (immunoblot)” value is listed as “induced”. Moreover, half-maximal inhibition in assay [2] (IC50) required 10 nM. In addition, in assay [3], the “HSP70 expression (immunoblot)” value is recorded as “induced” and the “RAF-1 expression (immunoblot)” value is given as “depleted”. The compound also showed an IC50 in assay [4] of 100 nM.

As for `COC1=C2C[C@@H](C)C[C@H](OC)[C@H](O)[C@@H](C)/C=C(\C)[C@H](OC(N)=O)[C@@H](OC)/C=C\C=C(/C)C(=O)NC(=CC1=O)C2=O` [Geldanamycin, geldanamycin, reference compound], the “Cellular Protein (% DMSO controls)” value with HCT116 cells ((48 h)) was found to be 46.3%; with HCT116 cells ((time not given)), 75.3%. The figures for the “% increase in HSP70 (Normalised Europium Counts compared to DMSO controls)” value in the assay with HSP70 in HCT116 cells ((48 h)) and in the assay on HSP70 in HCT116 cells ((time not given)) were 270% and 169%, respectively. Also, the 50% inhibitory concentration (IC50) in assay [2] (Homo sapiens, HT-29) stood at 50 nM; in assay [4] (Homo sapiens, HCT-116), 70 nM.

Usually IC50 stands for the point on the concentration scale where inhibition reaches its midpoint. Low readings indicate greater potency, high ones weaker potency.
